Results reported in patent publication US20090036418A1, “Pharmaceutical composition for treatment of cancer containing pyridylpyridazine or transition metal complex thereof as active ingredient” (priority 2005, published 2009).

Test system: XF-498 (human brain cancer)
Assay: SRB assay, XF-498 cancer cell line
Type: cell-based
Settings: brain cancer cell line of Test Example 1, SRB assay
Method: The pyridylpyridazine compounds prepared in Preparation Examples 1 to 5 and transition metal complexes thereof were evaluated for the anticancer activities thereof. As cancer cell lines used in the test, A549 (human lung cancer), SK-MEL-2 (human skin cancer), HCT-15 (human colon cancer), SK-OV-3 (human […]) and XF-498 (human brain cancer) among 60 kinds of cancer cell lines[Ross, D. T. et al., Systematic variation in gene expression patterns I human cancer cell lines. Nature genetics, 24, 227-235 (2000)], which are used for the search of anticancer activity in the US National Cancer Institute, were obtained from the Bioorganic Research Division, the Korea Research Institute of Chemical Technology. The anticancer activities of the cell lines were evaluated by measuring ED50 values according to the sulforhodamine B (SRB) assay described in the literature[Choi, S. et al., Cytotoxicity of trichlorothecenes to human solid tumor cells in vitro. Arch. Pharm. Res. 19, 6-11 (1996)]. […]
More specifically, the SRB assay was performed in the following manner. […] After completion of the culture, each well was well washed, treated with 150 μl (10 mM) of unbuffer ED Tris solution to dissolve out the SRB dye, and then measured for absorbance at 520 nm using a reader for 96-well plates. […]

Compound | anticancer activity against the brain cancer cell line (in words)
c1ccc(-c2ccc(-c3ccccn3)nn2)nc1 [Compound of Preparation Example 1, 3,6-bis(2′-pyridyl)pyridazine] | high anticancer activity
[3,6-bis(6′-methyl-2′-pyridyl)pyridazine]zinc(II) chloride [Compound of Preparation Example 4] | excellent anticancer activity
